Values joined by “and” are separate entries in the source; they are usually repeats but may differ in a detail not shown here. Identical values can stand only once.
Tests used:
[1] = parameters: key: very good: 0.1 to 3.0; good: 3.01 to 50; average: 50.1 to 1000; poor: >1000; none: NEGATIVE; settings: reference products of the interpretation scale; cited from earlier work
B16-F10 cells = experiment: Assay of melanin in B16-F10 cells (colorimetric, α-MSH stimulated); type: cell-based, murine; settings: Mus musculus, B16-F10, 72 h, 0.1 μM α-MSH, negative = inhibition, positive = stimulation, read-out: Melanin synthesis on B16
Description: It is a test to measure the synthesis of melanin by colorimetric assay on a murine melanoma cell line: line B16-F10. With this test it is possible to evaluate the depigmenting or propigmenting property of active ingredients.
The B16-F10 cells were seeded in 96-well plates in DMEM medium supplemented with FCS (foetal calf serum), and incubated 24 h at 37° C., 5% CO2. The cells were stimulated with 0.1 μM α-MSH (to stimulate melanin synthesis, the observed stimulation being about 150%) and treated 72 h with the active ingredients to be assayed. Each concentration of active ingredient was assayed at least in triplicate. Total melanin and intracellular melanin dissolved in lysis buffer were assayed by absorbance read-off at 405 nm. The total proteins were assayed in the lysate and the results expressed in mg melanin/mg proteins. Percentage activity was calculated as follows: […]
A negative value indicates inhibition of the melanin synthesis and translates depigmenting activity of the compound, whereas a positive value indicates induced melanin synthesis and translates a propigmenting property of the molecule.
• B16-F10 cell lines between P10 and P20 (murine melanocytes) (ATCC, CRL-6475); • reagents: DMEM without Phenol Red (GIBCOBRL, 118800-028), 200 mM glutamax-I supplement (GIBCOBRL, 35050-038), glucose (SIGMA, G7021), PBS (GIBCOBRL, 14190-094), foetal calf serum (Invitrogen, 10270-098), trypsin-EDTA (GIBCOBRL, 25300-054), NaOH (Sigma, S8045-500G), DMSO (Sigma, 471267-11), Nle, Phe-Melanocyte Stimulating Hormone (Sigma, M-8764), melanin (Sigma, M-0418), BCA-COPPER (SIGMA, B9643 and C2284), BSA (SIGMA, P0914) B) Test to Study Anti-Oxidizing Capability Using Chemiluminescence (Photochem Analytic Jena) Principle

[2] = Test to study anti-oxidizing capability using chemiluminescence (Photochem Analytic Jena); type: biochemical; settings: quantity of sample needed for activity equivalent to 1 μg Trolox, superoxide anion trapping
Description: This test is used to determine the anti-oxidizing capability of the molecules. It is a method which generates free radicals via photochemical signal. The intensity of oxidation is 1000 times higher than obtained under normal conditions.
Detection is performed using chemiluminescence. This allows evaluation of water-soluble and liposoluble antioxidant molecules or extracts
The results are expressed in equivalent quantity of vitamin C or Trolox (6-hydroxy-2,5,7,8-tetramethylchroman-2-carboxylic acid) respectively. Sensitivity is in the order of one nanomole.
The anti-oxidizing activity studied in this test represents the capability of specifically trapping superoxide anions by chemiluminescence.
The quantified results are expressed in Trolox equivalent (standard) or in “μg of product per 1 μg of Trolox”. This means that a quantity x of sample is needed to obtain activity equivalent to the activity detected with 1 μg of standard. It is the antioxidizing power in relation to a reference; this avoids having to take into account the concentrations tested.
The superoxide radical: O2^∘^− is generated by photochemical reaction: L+hv(UV)+O2→L*O2→L^∘^++O2^∘^− • L*: luminol in the excited state L^∘+: luminol radical Signal Detection
Part of the superoxide anions are inhibited by the antioxidants. The remaining free radicals are quantified by chemiluminescence. L^∘^++O2^∘^−→N2+AP*^2−→AP^2−+hv (luminescence)
AP*^2−: aminophthalate in the excited state

[3] = Log P (octanol/water partition coefficient); type: physicochemical
Text: Log P, also called Log Kow, is a measurement of the differential solubility of chemical compounds in two solvents (octanol/water partition coefficient).
Log P is equal to the logarithm of the ratio of the concentrations of the examined substance in octanol and in water. Log P=Log(Coct/Cwater). With this value it is possible to assess the hydrophilic or hydrophobic (lipophilic) nature of a molecule. If Log P is positive and very high, this means that the molecule under consideration is much more soluble in octanol than in water, which reflects its lipophilic nature, and conversely. A value of Log P=0 means that the molecule is distributed equally between the two phases and Coct=Cwater (C. Hansch, J. F. Quinlan, G. L. Lawrence, Linear free energy relationship between partition coefficients and the aqueous solubility of organic liquids, J. Org. Chem., 33 (1968), 347-350; C. Hansch, A. Leo, Exploring QSAR—Fundamentals and Applications in Chemistry and Biology, American Chemical Society, Washington, 1995; J. Sangster, Octanol—Water Partition Coefficients: Fundamentals and Physical Chemistry, Wiley, Chichester, 1997; W. Jorgensen, E. Duffy, Advanced Drug Delivery Reviews, (54), 2002, 355-366).

Row | logP [3] | Compound | Activity (scale for interpretation of results) [1] | μg sample per 1 μg of Trolox [2] | other results
1 | – | O=C(O)CCCC[C@@H]1CCSS1 (racemic) [Lipoic acid] | none | – | –
2 | – | Cc1cc(C(C)(C)C)c(O)c(C(C)(C)C)c1 [BHT] | good (3.01 to 50) | – | –
3 | – | N[C@@H](CS)C(=O)O [Cystein] | average (50.1 to 1000) | – | –
4 | 6.3 | CCCCCCCCCCCCN1C2=C(C(=O)CC(C)(C)C2)C(c2ccc(O)c(OC)c2)C2=C1CC(C)(C)CC2=O [Example 1, 10-dodecyl-9-(4-hydroxy-3-methoxyphenyl)-3,3,6,6-tetramethyl-3,4,6,7,9,10-hexahydroacridine-1,8(2H,5H)-dione] | – | 2.45 μg sample per 1 μg of Trolox | activation at 2 µM (B16-F10 cells; at 2 μM): -40%
5 | 5.21 | CCCCCCCCCCN1C2=C(C(=O)CC(C)(C)C2)C(c2ccc(O)c(O)c2)C2=C1CC(C)(C)CC2=O [Example 3, 10-decyl-9-(3,4-dihydroxyphenyl)-3,3,6,6-tetramethyl-3,4,6,7,9,10-hexahydroacridine-1,8(2H,5H)-dione] | – | 0.015 μg sample per 1 μg of Trolox | activation at 20 µM (B16-F10 cells): -46%
6 | 5.34 | CCCCCCCCCCN1C2=C(C(=O)CC(C)(C)C2)C(c2cc(OC)c(O)c(OC)c2)C2=C1CC(C)(C)CC2=O [Example 7, 10-decyl-9-(4-hydroxy-3,5-dimethoxyphenyl)-3,3,6,6-tetramethyl-3,4,6,7,9,10-hexahydroacridine-1,8(2H,5H)-dione] | – | 0.81 μg sample per 1 μg of Trolox | activation at 10 µM (B16-F10 cells): -56%
7 | > 5 | CCCCCCCCCCCCN1C2=C(C(=O)CC(C)(C)C2)C(c2cc(C(C)(C)C)c(O)c(C(C)(C)C)c2)C2=C1CC(C)(C)CC2=O [Example 8, 10-dodecyl-9-(3,5-di-tert-butyl-4-hydroxyphenyl)-3,3,6,6-tetramethyl-3,4,6,7,9,10-hexahydroacridine-1,8(2H,5H)-dione] | – | 62 μg sample per 1 μg of Trolox and 61.9 μg sample per 1 μg of Trolox | activation at 20 µM (B16-F10 cells): -46%
8 | > 5 | CCCCCCCCCCCCN1C2=C(C(=O)CC(C(C)C)C2)C(c2ccc(O)c(OC)c2)C2=C1CC(C(C)C)CC2=O (centres unmarked) [Example 9, 10-dodecyl-9-(4-hydroxy-3-methoxyphenyl)-3,6-diisopropyl-3,4,6,7,9,10-hexahydroacridine-1,8(2H,5H)-dione] | – | 1.57 μg sample per 1 μg of Trolox | activation at 10 µM (B16-F10 cells): -49%
9 | – | O=C1O[C@H]([C@@H](O)CO)C(O)=C1O [Vitamin C] | very good (0.1 to 3.0) | – | –
10 | – | Albumin | poor (>1000) | – | –

From US9493421B2, “Acridinedione derivatives for treating pigmentation disorders and ageing of the skin” (PIERRE FABRE DERMO-COSMETIQUE, priority 2011, dated 2016)
